The target of one data set is T1, ROCK2 (Homo sapiens, UniProt O75116).
T1 construct: purchased Upstate/Chemicon 14-451
The data set is described as follows: Rho kinase inhibition assay (IMAP fluorescence polarization), ROCK2. The class given is biochemical. As to conditions: 10 μM ATP, 60 min at room temperature. Here is the method:
(Molecular Devices product number R7184) was pre-incubated with a test compound for 5 minutes in buffer containing 10 mM Tris-HCl pH 7.2, 10 mM MgCl2, and 0.1% BSA. Following the pre-incubation, 10 μM ATP was added to initiate the reaction. After 60 minutes at room temperature, Molecular Devices IMAP™ binding solution was added to bind phosphorylated substrate. After 30 minutes of incubation in the presence of the IMAP™ beads, the fluorescence polarization was read and the ratio was reported as mP.
See Tian et al., Arch. Ophthalmol. […] Ophthalmol. Vis. […] Ophthalmol. […] Cytoskel. […] Ophthalmol. Vis. […] Ophthalmol. Vis.
For orientation: Polarisation of emitted light reports the rotation of a fluorescent probe.

A short description of data set [1]: Ocular comfort, composite behaviour score after ocular instillation. The class given is in vivo, rabbit. As to conditions: 4 mM, two drops to right eye, evaluated for 15 minutes; FIGS. 1 and 2. Here is the method:
The desired compound at a concentration of 4 mM in a formulation of 10 mM phosphate, 1% polysorbate 80, 0.85% NaCl, 0.02% BAC, 0.2% EDTA pH 7.0 was administered as two 30 µl drops to the right eye of each rabbit within a dosing group. The rabbits were evaluated for 15 minutes after ocular instillation and their changes in behavior were recorded. […] The higher the score, the more discomfort an animal senses. A mean ±SE was generated for each group and depicted in FIGS. 1 and 2.

Data set [2] is described as follows: Ocular surface and aqueous humor bioavailability. The class given is in vivo, New Zealand White rabbits. The note with it: New Zealand White, rabbit, topical, 30 μl of 1 mM (0.04% w/v) per eye. The protocol: Dose Formulation and Administration. Compounds 14 (prodrug) and 49 (base compound) were formulated at 0.04% w/v (the equivalent millimolar concentration is 1 mM) in 10 mM phosphate, 0.8% polysorbate 80, 0.85% NaCl, 0.01% BAC, 0.1% EDTA at pH 7.3. Each compound was administered as a 30 μl drop to both eyes of each animal within a dosing group and the ocular and systemic exposure was examined as described in Example 49.
Study sampling. 40 μL of saline was applied to the eyes at 0.083, 1, 2, and 4 hours after administration of each compound and the lavage fluids were collected as samples. Aqueous humor and ocular surface samples were obtained from 2 animals (4 eyes) per dosing group at 0.083, 1, 2, and 4 hours post dosing, by the methods described in Example 49. Ocular surface relates to the surface of the cornea and conjunctiva. Ocular surface residence time is the average time that a compound resides on the ocular surface.

Data set [3] in a line: Ocular surface and aqueous humor bioavailability. The class given is in vivo, New Zealand White rabbits. The note with it: New Zealand White, rabbit, topical, 30 μl of 1 mM (0.04% w/v) per eye, Compound 14 dosed 1 mM, 1 × 30 uL, 4 eyes, time 0.83 h.
The target in another data set is T2, ROCK1 (Homo sapiens, UniProt Q13464).
T2 construct: purchased Upstate/Chemicon 14-601
Nature of the data set: Rho kinase inhibition assay (IMAP fluorescence polarization), ROCK1. The class given is biochemical. Here is the method:
Following the pre-incubation, 10 μM ATP was added to initiate the reaction. After 60 minutes at room temperature, Molecular Devices IMAP™ binding solution was added to bind phosphorylated substrate. After 30 minutes of incubation in the presence of the IMAP™ beads, the fluorescence polarization was read and the ratio was reported as mP.

[4] abbreviates: ocular surface (saline lavage fluid).

Where two headings read alike, the source gives them in different places.

T2 sequence (Q13464 whole entry): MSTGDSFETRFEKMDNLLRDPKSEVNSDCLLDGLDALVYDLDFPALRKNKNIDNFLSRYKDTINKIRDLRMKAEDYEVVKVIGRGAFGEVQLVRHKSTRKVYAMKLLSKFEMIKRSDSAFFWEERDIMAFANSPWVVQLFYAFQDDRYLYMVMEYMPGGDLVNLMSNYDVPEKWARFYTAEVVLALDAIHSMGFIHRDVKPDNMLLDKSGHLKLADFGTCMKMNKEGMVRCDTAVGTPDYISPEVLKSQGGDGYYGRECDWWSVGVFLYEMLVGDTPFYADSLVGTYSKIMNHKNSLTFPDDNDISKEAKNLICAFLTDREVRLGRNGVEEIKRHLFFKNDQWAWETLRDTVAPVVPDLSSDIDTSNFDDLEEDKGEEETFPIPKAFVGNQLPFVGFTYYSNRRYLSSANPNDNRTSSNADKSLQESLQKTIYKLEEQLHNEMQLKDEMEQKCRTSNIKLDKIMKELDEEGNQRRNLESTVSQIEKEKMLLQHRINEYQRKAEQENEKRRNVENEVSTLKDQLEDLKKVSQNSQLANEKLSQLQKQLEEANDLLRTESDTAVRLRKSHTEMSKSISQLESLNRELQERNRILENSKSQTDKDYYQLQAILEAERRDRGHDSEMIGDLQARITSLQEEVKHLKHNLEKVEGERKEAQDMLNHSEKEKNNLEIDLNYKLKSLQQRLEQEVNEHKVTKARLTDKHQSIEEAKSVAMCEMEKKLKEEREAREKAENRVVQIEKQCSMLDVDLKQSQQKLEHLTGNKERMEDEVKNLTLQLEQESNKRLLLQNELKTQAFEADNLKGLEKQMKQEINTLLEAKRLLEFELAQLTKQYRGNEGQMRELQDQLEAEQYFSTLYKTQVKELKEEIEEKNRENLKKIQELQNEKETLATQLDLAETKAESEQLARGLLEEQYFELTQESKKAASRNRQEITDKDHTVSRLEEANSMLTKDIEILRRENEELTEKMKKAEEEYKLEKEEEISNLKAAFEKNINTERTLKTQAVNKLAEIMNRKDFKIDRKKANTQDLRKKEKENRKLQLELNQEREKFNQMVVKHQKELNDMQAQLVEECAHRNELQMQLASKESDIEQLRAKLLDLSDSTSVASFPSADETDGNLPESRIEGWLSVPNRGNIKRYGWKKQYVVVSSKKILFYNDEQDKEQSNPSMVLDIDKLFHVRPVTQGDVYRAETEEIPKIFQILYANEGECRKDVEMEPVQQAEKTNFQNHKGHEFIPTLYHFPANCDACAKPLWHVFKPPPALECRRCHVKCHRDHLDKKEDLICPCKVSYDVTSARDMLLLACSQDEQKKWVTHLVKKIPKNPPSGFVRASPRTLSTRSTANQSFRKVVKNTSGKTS
T1 sequence (O75116 whole entry): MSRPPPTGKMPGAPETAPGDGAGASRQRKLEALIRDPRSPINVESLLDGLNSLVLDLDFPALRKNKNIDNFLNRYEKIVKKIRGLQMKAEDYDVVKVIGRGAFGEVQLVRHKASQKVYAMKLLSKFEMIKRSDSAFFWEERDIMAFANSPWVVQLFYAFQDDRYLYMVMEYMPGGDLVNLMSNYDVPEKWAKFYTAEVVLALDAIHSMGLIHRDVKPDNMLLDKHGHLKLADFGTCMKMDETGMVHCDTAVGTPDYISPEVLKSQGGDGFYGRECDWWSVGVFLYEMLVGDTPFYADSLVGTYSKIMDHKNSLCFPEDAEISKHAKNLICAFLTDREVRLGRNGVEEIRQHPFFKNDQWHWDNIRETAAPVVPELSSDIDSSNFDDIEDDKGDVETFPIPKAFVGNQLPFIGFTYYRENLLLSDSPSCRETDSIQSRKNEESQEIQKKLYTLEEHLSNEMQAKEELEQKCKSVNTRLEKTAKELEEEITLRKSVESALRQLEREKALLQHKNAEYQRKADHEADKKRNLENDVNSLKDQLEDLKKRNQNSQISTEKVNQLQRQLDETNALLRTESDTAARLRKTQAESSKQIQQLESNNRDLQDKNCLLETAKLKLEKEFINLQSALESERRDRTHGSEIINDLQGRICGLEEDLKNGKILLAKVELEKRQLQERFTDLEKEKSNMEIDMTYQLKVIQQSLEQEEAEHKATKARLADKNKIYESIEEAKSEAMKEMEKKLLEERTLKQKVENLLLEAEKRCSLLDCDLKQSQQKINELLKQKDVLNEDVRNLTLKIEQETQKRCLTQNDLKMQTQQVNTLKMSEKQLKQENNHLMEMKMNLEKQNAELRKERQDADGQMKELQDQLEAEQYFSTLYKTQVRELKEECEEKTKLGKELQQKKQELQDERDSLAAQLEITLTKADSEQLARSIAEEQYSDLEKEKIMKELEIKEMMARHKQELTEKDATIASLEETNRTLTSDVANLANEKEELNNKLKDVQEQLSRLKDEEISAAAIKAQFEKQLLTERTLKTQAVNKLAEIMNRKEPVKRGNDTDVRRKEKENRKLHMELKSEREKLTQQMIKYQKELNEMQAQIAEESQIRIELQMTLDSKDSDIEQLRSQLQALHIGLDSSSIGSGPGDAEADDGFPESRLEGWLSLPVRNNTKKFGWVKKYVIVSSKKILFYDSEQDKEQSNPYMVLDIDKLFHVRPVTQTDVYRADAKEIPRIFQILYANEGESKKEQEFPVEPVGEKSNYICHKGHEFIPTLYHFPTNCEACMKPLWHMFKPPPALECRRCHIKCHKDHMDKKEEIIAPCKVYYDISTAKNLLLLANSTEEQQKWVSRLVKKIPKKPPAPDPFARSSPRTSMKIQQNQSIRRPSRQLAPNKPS

On to `Cc1ccc(CN2CC[C@@H](Nc3cccc4cnccc34)C2)cc1OCCOC(=O)c1ccccc1` [Compound 14, 2-(5-(((R)-3-isoquinolin-5-ylamino)pyrrolidin-1-yl)methyl)-2-methylphenoxy)ethyl benzoate], for which the IC50 on ROCK2 is 717 nM; on ROCK1 (10 μM ATP, 60 min at room temperature, read-out: ROCK1 IC50), 2460 nM. Moreover, in data set [1], the “Ocular discomfort (composite score) versus parent compound” value is recorded as “reduced level of discomfort compared to the parent compound”. The concentration at 1 h was determined as 0 nM in data set [2] (aqueous humor, Compound 14 dosed 1 mM, 1 × 30 uL, 4 eyes, time 1 h, read-out: Aqueous Humor concentration of [14], Mean) and 3080 nM in data set [2] (ocular surface (saline lavage fluid), Compound 14 dosed 1 mM, 1 × 30 uL, 4 eyes, time 1 h, read-out: Ocular Surface concentration of [14], Mean). The concentration at 2 h in data set [2] (aqueous humor, Compound 14 dosed 1 mM, 1 × 30 uL, 4 eyes, time 2 h, read-out: Aqueous Humor concentration of [14], Mean) worked out at 0 nM; in data set [2] (ocular surface (saline lavage fluid), Compound 14 dosed 1 mM, 1 × 30 uL, 4 eyes, time 2 h, read-out: Ocular Surface concentration of [14], Mean), 246 nM. Further, the concentration at 4 h worked out at 0 nM in data set [2] (aqueous humor, Compound 14 dosed 1 mM, 1 × 30 uL, 4 eyes, time 4 h, read-out: Aqueous Humor concentration of [14], Mean) and 0 nM in data set [2] (ocular surface (saline lavage fluid), Compound 14 dosed 1 mM, 1 × 30 uL, 4 eyes, time 4 h, read-out: Ocular Surface concentration of [14], Mean). Moreover, the concentration at […] in data set [3] (aqueous humor, read-out: Aqueous Humor concentration of [14], Mean) was determined as 0 nM; in data set [3] (ocular surface (saline lavage fluid), read-out: Ocular Surface concentration of [14], Mean), 24300 nM.
In the case of `Cc1ccc(CN2CC[C@@H](Nc3cccc4cnccc34)C2)cc1OCCO` [Compound 49, [2-(5-(((R)-3-(isoquinolin-5-ylamino)pyrrolidin-1-yl)methyl)-2-methylphenoxy)]ethanol], in data set [2] (aqueous humor), the concentration at 1 h is 93.9 nM, the concentration at 2 h was 24 nM and the concentration at 4 h turned out to be 3.4 nM. In data set [2] (setting [4]), the concentration at 1 h was 846 nM, the concentration at 2 h was 893 nM and the concentration at 4 h was determined as 65.7 nM. Half-maximal inhibition against ROCK1 (IC50) required 4.1 nM.

In general, IC50 refers to the concentration that inhibits the measured activity by half.
